pIC50: −log10 of the molar value. Some results are limits rather than exact numbers.

One assay has as its target FLT3 (Homo sapiens (Human), UniProt P36888). Kind of assay: Enzyme inhibition FLT3. Type of assay: biochemical. To be noted: read-out: IC50 value of inhibition against FLT3. As to the method:
(§1) In addition, the inhibitory activities of the compounds of the present disclosure against enzyme ABL1, FLT3 and PIM1 were also tested.

The target in the next assay is PIM1 (Homo sapiens (Human), UniProt P11309). Kind of assay: Enzyme inhibition PIM1. Type of assay: biochemical. To be noted: read-out: IC50 value of inhibition against PIM1. As to the method:
as §1

The target of the next assay is CDK6/cyclin D1 (Homo sapiens (Human), UniProt Q00534). Put plainly: Biochemical kinase inhibition test, CDK6/cyclin D1 (similar method). To be noted: for pIC50: CDK6/cyclin D1, 10 μM ATP, read-out: CDK6/Cyelin D1 IC50; for selectivity for CDK6/cyclin D1 relative to CDK4/cyclin D1: enzyme inhibitory activity, CDK6/cyclin D1 vs CDK4/cyclin D1. The method, then:
(§2) Potency determination of biochemical kinase inhibition test. Kinase activity test and IC50 determination. […] The kinase reaction was initiated by adding 1 μg (1.5 μM) of recombinant retinoblastoma protein, […] and 10μ Ci γ-32P-ATP. The reaction was incubated at 30° C. for 20 minutes, and was terminated by adding 2×Laemmli sample buffer, heated at 95° C. for three minutes, and the resulting solution was dissolved with 12% acrylamide SDS-PAGE and autoradiographed. A densitometer (Bio-Rad) was used to quantify the corresponding phosphorylated substrate protein bands. […] These reactions took place in the presence of 10 μM ATP.

The target in another assay is CDK4/Cyclin D1 (Homo sapiens (Human), UniProt P11802). Put plainly: Biochemical kinase inhibition test, CDK4/Cyclin D1 (32P-ATP, Rb substrate). To be noted: recombinant CDK4/Cyclin D1; 10 μM ATP; read-out: CDK4/Cydin D1 IC50. As to the method:
as §2

CDK6/cyclin D1, sequence (Q00534 whole entry, species assumed): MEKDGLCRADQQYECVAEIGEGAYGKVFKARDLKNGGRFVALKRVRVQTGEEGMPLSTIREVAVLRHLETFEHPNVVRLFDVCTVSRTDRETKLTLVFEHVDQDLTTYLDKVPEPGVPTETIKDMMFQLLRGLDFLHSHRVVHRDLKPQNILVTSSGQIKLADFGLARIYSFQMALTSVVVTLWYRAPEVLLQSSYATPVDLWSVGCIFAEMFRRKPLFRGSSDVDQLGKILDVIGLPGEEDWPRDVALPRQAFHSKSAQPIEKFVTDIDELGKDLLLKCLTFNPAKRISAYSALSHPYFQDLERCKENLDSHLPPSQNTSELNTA
CDK6/cyclin D1, sequence (P24385 whole entry partner, species assumed): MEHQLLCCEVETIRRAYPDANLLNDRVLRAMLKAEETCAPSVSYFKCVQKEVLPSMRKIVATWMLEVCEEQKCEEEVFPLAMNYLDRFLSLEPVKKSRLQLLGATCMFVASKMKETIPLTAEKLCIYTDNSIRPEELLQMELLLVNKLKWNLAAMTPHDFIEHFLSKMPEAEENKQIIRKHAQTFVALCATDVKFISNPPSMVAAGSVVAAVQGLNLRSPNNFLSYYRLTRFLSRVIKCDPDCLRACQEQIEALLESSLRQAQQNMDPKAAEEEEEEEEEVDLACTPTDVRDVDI
CDK4/Cyclin D1, sequence (P11802 whole entry): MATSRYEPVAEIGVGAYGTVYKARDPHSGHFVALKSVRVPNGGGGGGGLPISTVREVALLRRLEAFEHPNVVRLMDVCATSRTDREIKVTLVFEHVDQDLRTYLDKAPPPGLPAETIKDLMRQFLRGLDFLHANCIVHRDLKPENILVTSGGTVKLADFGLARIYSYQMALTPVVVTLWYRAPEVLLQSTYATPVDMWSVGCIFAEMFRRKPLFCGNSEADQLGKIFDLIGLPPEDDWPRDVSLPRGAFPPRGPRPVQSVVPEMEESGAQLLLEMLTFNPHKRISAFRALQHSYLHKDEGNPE
CDK4/Cyclin D1, sequence (P24385 whole entry partner): as the sequence (P24385 whole entry partner, species assumed) above
PIM1, sequence (P11309 whole entry, species assumed): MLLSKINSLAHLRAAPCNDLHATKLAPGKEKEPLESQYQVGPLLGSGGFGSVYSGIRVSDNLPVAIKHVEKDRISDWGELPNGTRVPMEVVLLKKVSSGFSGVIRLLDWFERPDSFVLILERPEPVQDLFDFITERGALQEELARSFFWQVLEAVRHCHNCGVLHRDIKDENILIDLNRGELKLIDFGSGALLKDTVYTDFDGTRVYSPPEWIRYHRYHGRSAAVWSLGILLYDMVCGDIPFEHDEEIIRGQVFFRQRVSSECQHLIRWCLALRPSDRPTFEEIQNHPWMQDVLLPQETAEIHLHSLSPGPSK
FLT3, sequence (P36888 27-993, species assumed): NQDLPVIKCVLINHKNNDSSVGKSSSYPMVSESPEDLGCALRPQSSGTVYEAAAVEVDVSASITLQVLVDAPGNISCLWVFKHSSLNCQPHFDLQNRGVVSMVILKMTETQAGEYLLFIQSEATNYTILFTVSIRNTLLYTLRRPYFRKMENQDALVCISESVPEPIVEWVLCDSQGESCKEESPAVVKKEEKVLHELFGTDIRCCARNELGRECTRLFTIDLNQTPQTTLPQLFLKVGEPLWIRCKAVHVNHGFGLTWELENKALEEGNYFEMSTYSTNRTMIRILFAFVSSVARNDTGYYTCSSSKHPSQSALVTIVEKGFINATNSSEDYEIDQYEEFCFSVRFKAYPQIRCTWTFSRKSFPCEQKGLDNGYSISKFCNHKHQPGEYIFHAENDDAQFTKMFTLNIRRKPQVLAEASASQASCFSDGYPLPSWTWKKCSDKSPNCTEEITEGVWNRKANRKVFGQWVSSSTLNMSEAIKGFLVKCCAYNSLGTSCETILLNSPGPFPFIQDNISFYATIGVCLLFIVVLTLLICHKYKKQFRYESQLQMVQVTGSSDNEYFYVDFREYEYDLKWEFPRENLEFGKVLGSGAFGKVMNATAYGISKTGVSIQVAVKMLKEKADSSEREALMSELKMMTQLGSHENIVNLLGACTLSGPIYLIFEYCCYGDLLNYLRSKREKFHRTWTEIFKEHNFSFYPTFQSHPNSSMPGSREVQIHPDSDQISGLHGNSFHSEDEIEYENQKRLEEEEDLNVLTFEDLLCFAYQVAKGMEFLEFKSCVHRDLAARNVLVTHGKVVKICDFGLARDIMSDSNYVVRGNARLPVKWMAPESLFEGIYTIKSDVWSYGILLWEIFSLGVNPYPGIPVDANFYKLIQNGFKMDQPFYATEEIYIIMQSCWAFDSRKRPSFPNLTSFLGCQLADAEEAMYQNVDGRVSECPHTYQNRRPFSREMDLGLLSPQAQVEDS

As to `CC(C)c1cnc2ccc3cnc(Nc4ccc(N5CCNCC5)cn4)nc3n12.Cl` [Compound I-1, 9-Isopropyl-N-(5-(piperazin-1-yl)pyridin-2-yl)imidazo[1′,2′:1,6]pyrido[2,3-d]pyrimidin-2-amine hydrochloride], the pIC50 is more than 8.30 on FLT3, more than 7.30 at PIM1, more than 9.00 on CDK6/cyclin D1 and 8.30 to 9.00 on CDK4/Cyclin D1. Further, the “selectivity for CDK6/cyclin D1 relative to CDK4/cyclin D1” value on CDK6/cyclin D1 is “more than 5 times”.

`CC(C)c1cnc2ccc3cnc(Nc4ccc(N5CCN(C)CC5)cn4)nc3n12` [Compound I-2, 9-Isopropyl-N-(5-(4-methylpiperazin-1-yl)pyridin-2-yl)imidazo[1′,2′:1,6]pyrido[2,3-d]pyrimidin-2-amine]: the pIC50 at CDK6/cyclin D1 and on CDK4/Cyclin D1 was more than 9.00 in each case.

In the case of `Cc1cc(Nc2ncc3ccc4ncc(C(C)C)n4c3n2)ncc1N1CCN(C)CC1` [Compound I-3], the pIC50 at CDK6/cyclin D1 and on CDK4/Cyclin D1 was 8.00 to 8.30 each time.

Turning to `Cc1nc(Nc2ncc3ccc4ncc(C(C)C)n4c3n2)ccc1N1CCN(C)CC1` [Compound I-4], the pIC50 on CDK6/cyclin D1 and on CDK4/Cyclin D1 was 8.00 to 8.30 each time.

For `CCN1CCN(c2ccc(Nc3ncc4ccc5ncc(C(C)C)n5c4n3)nc2)CC1` [Compound I-5], the pIC50 at CDK6/cyclin D1 and at CDK4/Cyclin D1 was more than 9.00 each time.

Consider `CCN1CCN(c2cnc(Nc3ncc4ccc5ncc(C(C)C)n5c4n3)cc2C)CC1` [Compound I-6], for which, at CDK6/cyclin D1, the pIC50 is 8.00 to 8.30 and the “selectivity for CDK6/cyclin D1 relative to CDK4/cyclin D1” value is listed as 2-3 times. Also, the pIC50 on CDK4/Cyclin D1 is 7.70 to 8.00.

As to `CCN1CCN(c2ccc(Nc3ncc4ccc5ncc(C(C)C)n5c4n3)nc2C)CC1` [Compound I-7], the pIC50 on CDK6/cyclin D1 and on CDK4/Cyclin D1 was 8.00 to 8.30 throughout. Further, the “selectivity for CDK6/cyclin D1 relative to CDK4/cyclin D1” value at CDK6/cyclin D1 is given as 2-3 times.

`Cc1cc(Nc2ncc3ccc4ncc(C(C)C)n4c3n2)ncc1N1CCNCC1.Cl` [Compound I-8]: the pIC50 on FLT3 was more than 8.30; on PIM1 it was more than 7.30; on CDK6/cyclin D1 it was more than 9.00; on CDK4/Cyclin D1 it was 8.30 to 9.00. Moreover, at CDK6/cyclin D1, the “selectivity for CDK6/cyclin D1 relative to CDK4/cyclin D1” value is reported as “more than 5 times”.

With `Cc1nc(Nc2ncc3ccc4ncc(C(C)C)n4c3n2)ccc1N1CCNCC1.Cl` [Compound I-9], the pIC50 is more than 8.30 at FLT3, more than 7.30 at PIM1, more than 9.00 on CDK6/cyclin D1 and 8.00 to 8.30 at CDK4/Cyclin D1. For the same compound, the “selectivity for CDK6/cyclin D1 relative to CDK4/cyclin D1” value at CDK6/cyclin D1 is listed as “more than 10 times”.

With `CC(C)c1cnc2ccc3cnc(Nc4ccc(N5CCN[C@@H](C)C5)cn4)nc3n12` [Compound I-10], the pIC50 on CDK6/cyclin D1 and at CDK4/Cyclin D1 was 8.00 to 8.30 in each case.

Turning to `CC(C)c1cnc2ccc3cnc(Nc4ccc(N5CCNC(C)(C)C5)cn4)nc3n12` [Compound I-11], the pIC50 at CDK6/cyclin D1 and on CDK4/Cyclin D1 was 8.00 to 8.30 in each case.

For `CC(C)c1cnc2ccc3cnc(Nc4ccc(N5C[C@@H](C)N[C@@H](C)C5)cn4)nc3n12` [Compound I-12], the pIC50 on CDK6/cyclin D1 and on CDK4/Cyclin D1 was 8.00 to 8.30 throughout.

`CC(C)c1cnc2ccc3cnc(Nc4cc(F)c(N5CCNCC5)cn4)nc3n12.Cl` [Compound I-13]: the pIC50 is 8.00 to 8.30 at CDK6/cyclin D1 and 7.70 to 8.00 on CDK4/Cyclin D1. Further, the “selectivity for CDK6/cyclin D1 relative to CDK4/cyclin D1” value at CDK6/cyclin D1 was 2-3 times.

For `CC(C)c1cnc2ccc3cnc(Nc4ccc(N5CCNCC5)c(F)n4)nc3n12.Cl` [Compound I-14], the pIC50 on CDK6/cyclin D1 is 7.70 to 8.00; at CDK4/Cyclin D1, 7.30 to 7.70. Further, the “selectivity for CDK6/cyclin D1 relative to CDK4/cyclin D1” value at CDK6/cyclin D1 is listed as 2-3 times.

Consider `CC(C)c1cnc2ccc3cnc(Nc4ccc(N5CCCNCC5)cn4)nc3n12` [Compound I-15], for which the pIC50 at CDK6/cyclin D1 and at CDK4/Cyclin D1 was 7.30 to 7.70 each time.

Consider `CC(C)c1cnc2ccc3cnc(Nc4ccc(N5CCCCC5)cn4)nc3n12` [Compound I-16], for which the pIC50 at CDK6/cyclin D1 and at CDK4/Cyclin D1 was 7.30 to 7.70 in each case.

In the case of `CC(C)c1cnc2ccc3cnc(Nc4ccc(N5CCOCC5)cn4)nc3n12` [Compound I-17], the pIC50 at FLT3 is more than 8.30; at PIM1, more than 7.30; at CDK6/cyclin D1, more than 9.00; on CDK4/Cyclin D1, 8.00 to 8.30. The “selectivity for CDK6/cyclin D1 relative to CDK4/cyclin D1” value at CDK6/cyclin D1 is reported as “more than 10 times”.

Regarding `Cc1cc(Nc2ncc3ccc4ncc(C(C)C)n4c3n2)ncc1N1CCOCC1` [Compound I-18], the pIC50 at FLT3 was more than 8.30; on PIM1 it was more than 7.30; at CDK6/cyclin D1, 8.30 to 9.00; on CDK4/Cyclin D1 it was 7.70 to 8.00. For the same compound, the “selectivity for CDK6/cyclin D1 relative to CDK4/cyclin D1” value on CDK6/cyclin D1 was “about 4 times”.

Take `Cc1nc(Nc2ncc3ccc4ncc(C(C)C)n4c3n2)ccc1N1CCOCC1` [Compound I-19]: the pIC50 at CDK6/cyclin D1 and on CDK4/Cyclin D1 was 8.00 to 8.30 in each case.

As to `CC1CN(c2ccc(Nc3ncc4ccc5ncc(C(C)C)n5c4n3)nc2)CCO1` (stereo not drawn) [Compound I-20], the pIC50 on CDK6/cyclin D1 and on CDK4/Cyclin D1 was 8.00 to 8.30 in each case.

Consider `CC(C)c1cnc2ccc3cnc(Nc4ccc(N5C[C@@H](C)O[C@@H](C)C5)cn4)nc3n12` [Compound I-21], for which, on CDK6/cyclin D1, the pIC50 is 7.70 to 8.00 and the “selectivity for CDK6/cyclin D1 relative to CDK4/cyclin D1” value was 2-3 times. The pIC50 at CDK4/Cyclin D1 is 7.30 to 7.70.

In the case of `CC(C)c1cnc2ccc3cnc(Nc4ccc(N5CCC6(CCNCC6)C5)cn4)nc3n12` [Compound I-22], the pIC50 on CDK6/cyclin D1 and at CDK4/Cyclin D1 was 7.30 to 7.70 throughout.

`CC(C)c1cnc2ccc3cnc(Nc4ccc(N5CCC6(CNC6)C5)cn4)nc3n12` [Compound I-23]: the pIC50 at CDK6/cyclin D1 and at CDK4/Cyclin D1 was 7.30 to 7.70 throughout.

For the compound `CC(C)c1cnc2ccc3cnc(Nc4ccc(N5CC6(CNC6)C5)cn4)nc3n12` [Compound I-24], the pIC50 at CDK6/cyclin D1 and at CDK4/Cyclin D1 was 7.30 to 7.70 throughout.

For the compound `CC(C)c1cnc2ccc3cnc(Nc4ccc(N5CCC6(CC5)CNC6)cn4)nc3n12` [Compound I-25], the pIC50 on CDK6/cyclin D1 and on CDK4/Cyclin D1 was 7.30 to 7.70 in each case.

In the case of `CC(C)c1cnc2ccc3cnc(Nc4ccc(N5CC6(CCNCC6)C5)cn4)nc3n12` [Compound I-26], the pIC50 on CDK6/cyclin D1 and at CDK4/Cyclin D1 was 7.30 to 7.70 throughout.

As to `CC(C)c1cnc2ccc3cnc(Nc4ccc(N5CCNCC5)cc4F)nc3n12` [Compound I-27], the pIC50 on CDK6/cyclin D1 and at CDK4/Cyclin D1 was 7.00 to 7.30 in each case.

Turning to `COc1cc(OCCN(C)C)ccc1Nc1ncc2ccc3ncc(C(C)C)n3c2n1` [Compound I-28], the pIC50 on CDK6/cyclin D1 and on CDK4/Cyclin D1 was 7.00 to 7.30 in each case.

Turning to `COc1cc(OC2CCN(C)CC2)ccc1Nc1ncc2ccc3ncc(C(C)C)n3c2n1` [Compound I-29], the pIC50 on CDK6/cyclin D1 and at CDK4/Cyclin D1 was 7.00 to 7.30 throughout.

Consider `COc1ccc2cc(Nc3ncc4ccc5ncc(C(C)C)n5c4n3)ccc2n1` [Compound I-30], for which the pIC50 at CDK6/cyclin D1 and on CDK4/Cyclin D1 was 7.00 to 7.30 throughout.

`Cl.c1cc(Nc2ncc3ccc4ncc(C5CCCC5)n4c3n2)ncc1N1CCNCC1` [Compound I-31]: the pIC50 on FLT3 is more than 8.30; on PIM1 it was more than 7.30; at CDK6/cyclin D1 it was more than 9.00; at CDK4/Cyclin D1 it was 8.30 to 9.00. Further, the “selectivity for CDK6/cyclin D1 relative to CDK4/cyclin D1” value at CDK6/cyclin D1 is reported as “more than 5 times”.

Turning to `CCN1CCN(c2cnc(Nc3ncc4ccc5ncc(C6CCCC6)n5c4n3)cc2C)CC1` [Compound I-32], the pIC50 on CDK6/cyclin D1 and on CDK4/Cyclin D1 was 8.00 to 8.30 in each case.

For `Cc1cc(Nc2ncc3ccc4ncc(C5CCCC5)n4c3n2)ncc1N1CCNCC1.Cl` [Compound I-33], the pIC50 at FLT3 was more than 8.30; at PIM1, more than 7.30; at CDK6/cyclin D1 it was more than 9.00; on CDK4/Cyclin D1 it was 8.00 to 8.30. Further, on CDK6/cyclin D1, the “selectivity for CDK6/cyclin D1 relative to CDK4/cyclin D1” value was “more than 10 times”.

In the case of `Cc1nc(Nc2ncc3ccc4ncc(C5CCCC5)n4c3n2)ccc1N1CCNCC1.Cl` [Compound I-34], the pIC50 on FLT3 is more than 8.30; on PIM1, more than 7.30; at CDK6/cyclin D1, more than 9.00; on CDK4/Cyclin D1 it was 8.00 to 8.30. The “selectivity for CDK6/cyclin D1 relative to CDK4/cyclin D1” value at CDK6/cyclin D1 is “more than 10 times”.

Turning to `C[C@@H]1CN(c2ccc(Nc3ncc4ccc5ncc(C6CCCC6)n5c4n3)nc2)C[C@H](C)N1` [Compound I-35], the pIC50 at CDK6/cyclin D1 and at CDK4/Cyclin D1 was 8.00 to 8.30 in each case.

Consider `Fc1cc(Nc2ncc3ccc4ncc(C5CCCC5)n4c3n2)ncc1N1CCNCC1` [Compound I-36], for which the pIC50 on CDK6/cyclin D1 and on CDK4/Cyclin D1 was 7.70 to 8.00 each time.

In the case of `Fc1nc(Nc2ncc3ccc4ncc(C5CCCC5)n4c3n2)ccc1N1CCNCC1` [Compound I-37], the pIC50 on CDK6/cyclin D1 and on CDK4/Cyclin D1 was 8.00 to 8.30 each time.

Consider `Cc1cc(Nc2ncc3ccc4ncc(C5CCCC5)n4c3n2)ncc1N1CCOCC1` [Compound I-38], for which the pIC50 on FLT3 was more than 8.30; on PIM1, more than 7.30; at CDK6/cyclin D1, 8.30 to 9.00; on CDK4/Cyclin D1, 7.70 to 8.00. Moreover, on CDK6/cyclin D1, the “selectivity for CDK6/cyclin D1 relative to CDK4/cyclin D1” value is “about 4 times”.

`C[C@@H]1CN(c2ccc(Nc3ncc4ccc5ncc(C6CCCC6)n5c4n3)nc2)C[C@H](C)O1` [Compound I-39]: on CDK6/cyclin D1, the pIC50 is 7.70 to 8.00 and the “selectivity for CDK6/cyclin D1 relative to CDK4/cyclin D1” value was 2-3 times. Moreover, the pIC50 at CDK4/Cyclin D1 is 7.30 to 7.70.
